From patent US20250304620A1, “ANTIMICROBIAL PEPTIDE AND APPLICATION THEREOF” (priority 2023, published 2025)
Marks after values point to notes of the source that are not given here. Non-standard residues stand in square brackets, D forms with d. PEG2000 = polyethylene glycol 2000, conjugated to the N-terminus; PEG4000 = polyethylene glycol 4000, conjugated to the C-terminus; 2Nal = N[C@@H](Cc1ccc2ccccc2c1)C(=O)O

Assays:
[1] = test system: Shigella flexneri ATCC 12022; assay: MIC against clinically common bacterial strain; format: cell-based
Method in brief: (§1)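 Broth microdilution (CLSI), twofold steps, MIC endpoint, 5× in parallel.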

[2] = test system: Pseudomonas aeruginosa ATCC 27853; assay: Injectable formulations on mice infected with peritonitis; format: in vivo, ICR mice; conditions: 1 mg/kg via tail vein, twice a day for 3 days, n = 10; for Average survival times (Days): observed for 14 d
Method in brief: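 Survival readout: deaths and survival time tracked for 14 d. Treatment was tail-vein injection by body weight, twice a day for 3 consecutive days, starting right after intraperitoneal challenge with 0.2 mL of 1×10^9 CFU/mL P. aeruginosa ATCC 27853 in male and female ICR mice.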

[3] = test system: Methicillin-resistant Staphylococcus aureus (MRSA); format: cell-based; conditions: drug-resistant strain MRSA
Method in brief: (§2)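 Broth serial twofold dilution per CLSI standards, run 5 times in parallel, gave MIC values for the peptides against clinically common resistant strains.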

[4] = test system: vancomycin-resistant Enterococcus (VRE); format: cell-based; conditions: drug-resistant strain VRE
Method in brief: as §2

[5] = test system: carbapenem-resistant Escherichia coli (CREC); format: cell-based; conditions: drug-resistant strain CREC
Method in brief: as §2

[6] = test system: carbapenem-resistant Pseudomonas aeruginosa (CRPA); format: cell-based; conditions: drug-resistant strain CRPA
Method in brief: as §2

[7] = test system: carbapenem-resistant Klebsiella pneumoniae (CRKP); format: cell-based; conditions: drug-resistant strain CRKP
Method in brief: as §2

[8] = test system: Staphylococcus aureus (NRS 384); conditions: MIC vs Staphylococcus aureus (NRS 384) after trypsin treatment 1:10 (w/w), 37° C., 3 h
Description: Trypsin (250 U/mg, pH=8.0) and AMPs (LV-1 to LV-30) were mixed in a ratio of 1:10 (w/w) and added to a reaction buffer (0.2 M sodium phosphate, 1 mM CaCl2), pH 7.5), and then incubated at 37° C. for 3 h.

[9] = test system: Escherichia coli ATCC 25922; assay: Oral formulations on mice with systemic bacterial infection; format: in vivo, ICR mice; conditions: 1 mg/kg gavage, three times a day for 7 days, n = 10; for Average survival times (Days): observed for 14 d
Method in brief: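 Survival time and deaths were logged over a 14 d observation after oral gavage dosing (by body weight, thrice daily, 7 days, starting right after infection). Model: mixed-sex ICR mice, n=10 per group, intraperitoneal injection of E. coli ATCC 25922 suspension (0.2 mL, 1×10^7 CFU/mL).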

Enterococcus ATCC 29212 = format: cell-based
Method in brief: as §1

Candida krusei ATCC 6258 = format: cell-based
Method in brief: as §1

[10] = test system: Candida tropicalis ATCC 750; format: cell-based
Method in brief: as §1

[11] = test system: Candida albicans ATCC MYA-2876; format: cell-based
Method in brief: as §1

[12] = test system: Klebsiella pneumoniae ATCC 700603; format: cell-based
Method in brief: as §1

[13] = test system: Corynebacterium ATCC 7715; format: cell-based
Method in brief: as §1

[14] = test system: Escherichia coli ATCC 25922; format: cell-based
Method in brief: as §1

[15] = test system: Serratia marcescens ATCC 29021; format: cell-based
Method in brief: as §1

[16] = test system: Trichophyton ATCC MYA-4438; format: cell-based
Method in brief: as §1

[17] = test system: Pseudomonas aeruginosa ATCC 27853; format: cell-based
Method in brief: as §1

Substance | MIC Shigella flexneri ATCC 12022 [1] [µg/mL] | Number of mice that died on each day after infection: day 1 [2] [Mouse] | Number of mice that died on each day after infection: day 2 [2] [Mouse] | Number of mice that died on each day after infection: day 3 [2] [Mouse] | Number of mice that died on each day after infection: day 4 [2] [Mouse] | Number of mice that died on each day after infection: day 5 [2] [Mouse] | Average survival times (Days) [2] | MIC MRSA [3] [µg/mL] | MIC VRE [4] [µg/mL] | MIC CREC [5] [µg/mL] | MIC CRPA [6] [µg/mL] | MIC CRKP [7] [µg/mL] | Trypsin MIC [8] [µg/mL] | Number of mice that died on each day after infection: day 4 [9] [Mouse] | Number of mice that died on each day after infection: day 5 [9] [Mouse] | Number of mice that died on each day after infection: day 6 [9] [Mouse] | Number of mice that died on each day after infection: day 7 [9] [Mouse] | Number of mice that died on each day after infection: day 8 [9] [Mouse] | Average survival times (Days) [9] | MIC Enterococcus ATCC 29212 (Enterococcus ATCC 29212) [µg/mL] | further results
Ac-RKLLXRLKXRK-PEG4000 [LV-30] (Ac-RKLL[2Nal]RLK[2Nal]RK-PEG4000) [polyethylene glycol 4000 conjugated to C-terminal; X=3-(2-naphthyl)-alanine] | 2 | 1 | 1 | 0 | 1 | 1 | 9.6*** Days | 8 | 4 | 4 | 8 | 4 | 1 | 1 | 1 | 3 | 0 | 1 | 9.1** Days | 4 | MIC Candida krusei ATCC 6258 (Candida krusei ATCC 6258): 16 µg/mL; MIC Candida tropicalis ATCC 750 [10]: 8 µg/mL; MIC Candida albicans ATCC MYA-2876 [11]: 8 µg/mL; MIC Klebsiella pneumoniae ATCC 700603 [12]: 8 µg/mL; MIC Corynebacterium ATCC 7715 [13]: 8 µg/mL; MIC Escherichia coli ATCC 25922 [14]: 2 µg/mL; MIC Serratia marcescens ATCC 29021 [15]: 8 µg/mL; MIC Trichophyton ATCC MYA-4438 [16]: 8 µg/mL; MIC Pseudomonas aeruginosa ATCC 27853 [17]: 2 µg/mL
PEG2000-RKLLXRLKXRK-NH2 [LV-29] (PEG2000-RKLL[2Nal]RLK[2Nal]RK-NH2) [polyethylene glycol 2000 conjugated to N-terminal; X=3-(2-naphthyl)-alanine] | 4 | 1 | 0 | 0 | 3 | 1 | 8.8** Days | 4 | 4 | 8 | 4 | 8 | 1 | 0 | 1 | 2 | 1 | 1 | 10.2*** Days | 8 | MIC Candida krusei ATCC 6258 (Candida krusei ATCC 6258): 8 µg/mL; MIC Candida tropicalis ATCC 750 [10]: 4 µg/mL; MIC Candida albicans ATCC MYA-2876 [11]: 8 µg/mL; MIC Klebsiella pneumoniae ATCC 700603 [12]: 4 µg/mL; MIC Corynebacterium ATCC 7715 [13]: 16 µg/mL; MIC Escherichia coli ATCC 25922 [14]: 1 µg/mL; MIC Serratia marcescens ATCC 29021 [15]: 4 µg/mL; MIC Trichophyton ATCC MYA-4438 [16]: 16 µg/mL; MIC Pseudomonas aeruginosa ATCC 27853 [17]: 4 µg/mL
